Results taken from patent publication US20260071190A1, “SARS CORONAVIRUS 2 R[…] […] GENES, DERIVED FROM GH CLADE SARS CORONAVIRUS 2 OF KOREAN ISOLATE, AND THE PRODUCTION METHOD THEREFOR” (RpexBio, Inc., priority 2022, published 2026).

Tested on: rSARS-COV-2/YS006_Nluc P2 virus (YS006_spike)
Type: cell-based, SARS coronavirus 2

CC(C)(C)[C@H](NC(=O)C(F)(F)F)C(=O)N1C[C@H]2[C@@H]([C@H]1C(=O)N[C@H](C#N)C[C@@H]1CCNC1=O)C2(C)C [PF-07321332]
antiviral activity against YS006_spike reporter virus: high antiviral activity | inhibitory effect compared among cell lines (A549_ACE2 cells versus Calu-3 and Vero E6, FIG. 6B): strongest inhibitory effect
